Measured values from patent US20050053931A1, “Method for the diagnosis and therapy of renal cell carcinoma” (priority 2001, published 2005).
Residues, ends and D or L forms follow the SMILES beside them. *: point of attachment. Cbz = O=C(OCc1ccccc1)*

Experiments:
[1] = test system: mycNbk expression in DU145 prostate carcinoma cells; test: Conditional expression of mycNbk after Ad-TreNbk-tTA infection (Western blot); assay type: cell-based, human; details: 24 h after infection with Ad-TreNbk-tTA at 25 MOI
Excerpt: For regulable expression of the pro-apoptotic gene Nbk in human cells, an adenoviral vector based on the adenovirus serotype 5 backbone was constructed. In this construct, the E3 region was replaced by the expression cassette for the tTA and the E1 region was replaced by an expression cassette for Nbk. To allow for convenient detection of the exogenous Nbk, a myc tag was inserted at the N-terminus of the human Nbk cDNA. Constitutive expression of the tTA was achieved by putting the tTA under the control of a CMV promoter. In the absence of tetracyclin or doxycyclin the tTA fusion protein binds via the TetR portion to the TRE in the PhCMV* promoter and activates via the VP16AD portion the transcription of the mycNbk. In the presence of tetra- or doxycyclin Nbk expression is repressed and switched off.
The recombinant adenovirus Ad-TreNbk-tTA (FIG. 7A) was employed for expression of the myc tagged Nbk (mycNbk) in a doxycyclin dependent manner. […] Apart from DU145, Nbk could be strongly expressed by the use of this adenoviral vector 24 h after transduction in a panel of other carcinomas or non-epithelial tumor cells, i.e. sarcoma, glioma and other mesenchymal cell types.
Apoptosis was determined by the use of a modified cell cycle analysis technique that relies on the measurement of cellular DNA content on the single cell level by flow cytometry. […]

glioma cells = details: upon adenoviral Nbk gene transfer with Ad-TreNbk-tTA; cited from earlier work

With `C[C@H]1c2cccc(O)c2C(O)=C2C(=O)[C@]3(O)C(O)=C(C(N)=O)C(=O)[C@@H](N(C)C)[C@@H]3[C@@H](O)[C@@H]21` [doxycyclin] the “doxycyclin concentration at which Nbk expression is almost completely suppressed” value [1] was ≥ 10 ng/mL.
In the case of `CC(C)C[C@@H](C=O)NC(=O)[C@H](CC(C)C)NC(=O)[C@H](CC(C)C)NC(=O)OCc1ccccc1` [MG132] (Cbz-Leu-Leu-Leu-aldehyde), the Nbk expression levels (glioma cells) is given as “enhanced Nbk expression levels” and the “sensitivity for Nbk-induced apoptosis” value (glioma cells) is given as “increased sensitivity for Nbk-induced apoptosis”.
